Measured values: paper PMC11982498 (Redox Biology, 2025)

Legend:
[1] = system: bio-HRAS (DNA, i motif) CGCCCGTGCCCTGCGCCCGCAACCCGA; assay: SPR; settings: K+ 100 mM; 20 mM MES, pH 5.5, 25 °C
BCL-2 IM = assay: FRET fluorescence titration of double-labeled DNA; assay type: binding; settings: pH 6.2
Procedure: Figure S3. Biophysical experiments were performed for binding of acridine derivative to BCL-2 promoter i-motif and other DNA structures. (A-C) SPR experiments were performed for binding of B14 to ILPR promoter i-motif, (G2C4)6 promoter i-motif, and HRAS promoter i-motif. Bio-ILPR, bio-(G2C4)6, and bio-HRAS were annealed in MES buffer at pH 5.5. (D) FRET experiment was performed for pH-dependent fluorescence change of BCL-2 promoter i-motif dual labeled with FAM and TAMRA at the 5´-end and 3´-end, respectively. […] (E) Dose-dependent fluorescence spectra changes at 516 nm for various dual labeled C-rich oligomers (representing i-motifs from promoters of BCL-2, C-KIT, C-MYC, C-JUN and TEL-C DNA) were measured with addition of increasing amount of B14. […] All the experiments were repeated for three times.
The oligonucleotides with fluorescent 5´-FAM and 3′-TAMRA labeling at concentration of 100 nM in 1 × BPES buffer were annealed by heating at 95 °C for 5 min followed by cooling to room temperature. The spectra from 500 nm to 700 nm of 100 μL mixture with addition of different equivalent compounds at 25 °C were recorded based on fluorescence emission (λex = 480 nm).

[2] = system: BCL-2 (BCL-2 IM) (DNA, i motif) CAGCCCCGCTCCCGCCCCCTTCCTCCCGCGCCCGCCCCT; assay: CD melting, 287 nm; settings: K+ 100 mM KCl plus potassium phosphate; BPES buffer, pH 5.5; 20 μM B14 (DNA 1, 2 or 5 μM, prints disagree)
SH-SY5Y cells = assay: FITC Annexin V/PI cell apoptosis analysis in Aβ1-42 model; assay type: cell-based; settings: 25 μM Aβ1-42 induced model
Procedure: The FITC Annexin V/PI apoptosis analysis was conducted using the FITC Annexin V/PI Apoptosis Detection Kit (Muti sciences, 70-AP101-100). Cells were treated with varying concentrations of B14 in a 6-well plate containing a cell model induced with 25 μM Aβ1-42. After digestion and resuspension in 500 μL binding buffer, samples were incubated with 5 μL of FITC Annexin V for 5 minutes, followed by the addition of 5 μL PI for further incubation at room temperature for 10 minutes. Flow cytometry analysis (Millipore, guava easy Cyte) was used to measure fluorescence intensity, and data analysis was performed using Flow jo V10.

[3] = system: BCL-2, BAX, Cyto-C, Cleaved-caspase 9, Cleaved-caspase 3 in hippocampus of APP/PS1 mice; assay: Western blot and immunofluorescence of apoptosis related factors in hippocampus; assay type: in vivo; settings: B14 10, 20, 40 mg/kg i.p. every other day
Procedure: (§1) Protein samples (25–40 μg) were separated using 10 % SDS-PAGE and subsequently transferred onto PVDF membranes (0.22 μm, Servicebio, Guangzhou, China) via electro transfer. Following blocking with TBST solution (Servicebio, Guangzhou, China) containing 5 % BSA (Solarbio, Beijing, China) for approximately 60 min at room temperature, the membrane was exposed to various primary antibodies overnight at 4 °C on a rotating shaker. Then, the membranes were incubated with HRP-conjugated secondary antibody (Affinity, Changzhou, China) for 2 h. Protein bands were then detected using an ECL kit. The signal intensity of each target protein was quantified using Image J 1.8.0 software (Bio-Rad Laboratories, California, USA).
(§2) Five months old male APP/PS1 mice, weighing 25–33 g, were purchased from Guangdong Medical Laboratory Animal Center and housed in the Laboratory Animal Center of Sun Yat-sen University (Guangzhou, China) for experimentation. All procedures were approved by the Animal Care and Use Committee of Sun Yat-sen University and complied with legal requirements and national guidelines for the care and maintenance of laboratory animals (Approval No. SYSU-IACUC-2024-002032). The mice were housed in a specific pathogen-free environment with a controlled temperature of 22 ± 1 °C and a 12-h dark/light cycle. […]

HRAS promoter i-motif = assay: TO displacement assay, HRAS i-motif; assay type: binding
Procedure: DNA oligonucleotides were diluted to 1 μM with 1 × PBES buffer at pH 5.5, annealed at 95 °C for 10 min, cooled to room temperature, and stored at 4 °C for future use. TO dye (1 μM) was added to the DNA solution followed with incubation for 1 h. The spectra of 100 μL mixture with addition of different equivalent compounds at 25 °C were recorded based on fluorescence emission (λex = 480 nm).
TO displacement ratio (%) = (F0 − FC) / (F0 − FB) * 100.
F0 and FC were the fluorescence intensity of TO at 536 nm with DNA before and after adding compounds, respectively. FB was the fluorescence intensity of TO at 536 nm with buffer only.

[4] = system: bio-BCL-2 (BCL-2 IM) (DNA, i motif) CAGCCCCGCTCCCGCCCCCTTCCTCCCGCGCCCGCCCCT; assay: SPR; settings: K+ 100 mM; 20 mM MES, pH 5.5, 25 °C
[5] = system: GFAP, Iba-1, NF-κB, TNF-α and IL-6 in hippocampus of APP/PS1 mice; assay: Neuroinflammation markers in hippocampus; assay type: in vivo
Procedure: as §1, §2

O=C(CCN1CCOCC1)Nc1ccc2c(c1)c(=O)c1cc(NC(=O)CCN3CCOCC3)ccc1n2-c1ccc2occc2c1 [Compound B14]
KD [1]: > 50 µM
fluorescence response of double-labeled DNA (BCL-2 IM): dose-dependent effect on the fluorescence of BCL-2 IM
ΔTm [2]: 11.26 °C
apoptosis ratio (SH-SY5Y cells): decreased in a dose-dependent manner
expression level of BCL-2 in hippocampus [3]: effectively increased the expression level of BCL-2
expression levels of pro-apoptotic factors in hippocampus [3]: decreased the expression levels of BAX, Cyto-C, Cleaved-caspase 9 and Cleaved-caspase 3
TO displacement ratio (HRAS promoter i-motif): 16%
KD [4]: 2.13 µM
activation of astrocytes (GFAP) and microglia (Iba-1) [5]: reduce the activations of astrocytes
expressions of inflammatory factors [5]: decrease the expressions of the inflammatory factors NF-κB, TNF-α and IL-6
